The target of one assay is T1, Human GIP R (Homo sapiens, UniProt P48546).
T1 construct: expressed in transfected cells; host or cells: CHO
T1 sequence (P48546 22-466): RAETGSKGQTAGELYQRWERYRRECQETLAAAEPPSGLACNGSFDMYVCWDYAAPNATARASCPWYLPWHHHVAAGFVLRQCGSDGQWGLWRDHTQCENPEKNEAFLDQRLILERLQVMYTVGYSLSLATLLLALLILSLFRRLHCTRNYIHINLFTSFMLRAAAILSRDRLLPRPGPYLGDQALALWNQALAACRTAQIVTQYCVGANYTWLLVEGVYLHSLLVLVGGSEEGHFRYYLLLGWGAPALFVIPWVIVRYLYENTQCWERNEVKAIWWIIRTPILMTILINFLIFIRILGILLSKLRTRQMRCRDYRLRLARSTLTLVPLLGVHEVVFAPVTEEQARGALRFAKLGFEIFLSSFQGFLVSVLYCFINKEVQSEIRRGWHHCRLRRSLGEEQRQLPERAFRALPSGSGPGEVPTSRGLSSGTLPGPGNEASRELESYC
The assay can be described thus: cAMP (HTRF) activity in CHO cells stably overexpressing GIP receptor. The assay is classed as cell-based. Conditions: for Human GIP R Rel. A (Relative Activity): EC50 of human GIP / EC50 of compound; for EC50: stable transfected cell cAMP activity, at least 3 independent tests. As to the method:
(§1) By measuring the cAMP signal response levels of the aforementioned cells, the agonistic activity of individual compound towards the corresponding receptor was determined. The intracellular cAMP content was measured using reagent kit available from Cisbio Corp. based on HTRF (homogeneous time-resolved fluorescence) technology.
(§2) The cell fluid was transferred to 10 ml of HBSS for resuspension, and centrifuged at 1000 rpm for 5 minutes at room temperature.
(§3) 10 μL cell suspension was added to each well in the 384 well plate. […] Using the ECHO liquid transfer system, 100 nL of the prepared compound solution was added to the corresponding cell suspensions in the 384 well plate, rotated and shaken at 1000 rpm for 1 minute to mix evenly, and then incubated at room temperature for 60 minutes. 10 μL of detection reagent was added to each well after drug incubation was completed, and incubation was performed in the kit at room temperature for 60 minutes. […] GraphPad Prism 5 plotting software was used to create compound concentration response curves and EC50 (nM) values was calculated.
(In TR-FRET formats the signal depends on donor and acceptor labels being close together.)

A further assay concerns the target T2, Human GCG R (Homo sapiens, UniProt P47871).
T2 construct: expressed in transfected cells; host or cells: HEK-293
In words: cAMP (HTRF) activity in HEK-293 cells stably overexpressing human GCG receptor. Conditions: EC50 of human GCG / EC50 of compound. The assay is classed as cell-based. As to the method:
as §1, §2, §3

In a further assay the test system is RIN-m5F cells. The assay is classed as cell-based, rat. As to conditions: for Rel. A (Relative Activity) on RIN-m5F: relative to GLP-1(7-37). In a few lines:
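After 60 min room-temperature exposure of HBSS-suspended RIN-m5F cells to compound and another 60 min with detection reagent, cellular cAMP level was determined.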

A further assay has as its system 3T3-L1 adipocytes. As to conditions: for Rel. A (Relative Activity) on 3T3-L1 adipocyte: relative to GIP. In a few lines: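 Compound-induced cAMP was measured in mature 3T3-L1 adipocytes after 60 min room-temperature exposure to a 10-concentration, 3-fold dilution series, followed by 60 min with kit detection reagent and curve fitting. Differentiation used IBMX/dexamethasone/insulin (5 days), insulin with 10 uM rosiglitazone (3 days), then 2–3 days in 10% FBS.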

Assay [1] relates to human primary liver cells. The assay is classed as cell-based. Conditions: for Rel. A (Relative Activity) on human primary liver cells: relative to GCG. As to the method: The cAMP levels produced by compounds on human primary liver cells were determined in this experiment. Human primary liver cells were purchased from Lonza (cell product number HUCPG).
Frozen human primary liver cells were placed in a 37° C. constant temperature water bath for rapid thawing and recovery. The cell solution was transferred to 10 ml of HBSS for resuspension, and centrifuged at 1000 rpm for 5 minutes at room temperature.
10 μL cell suspension was added to each well in the 384 well plate. […] Using the ECHO liquid transfer system, 100 nL of the prepared compound solution was added to the corresponding cell suspensions in the 384 well plate, rotated and shaken at 1000 rpm for 1 minute to mix evenly, and then incubated at room temperature for 60 minutes. 10 μL of detection reagent was added to each well after drug incubation was completed, and incubation was performed for 60 minutes.

A further assay deals with Human GLP-1R (Homo sapiens, UniProt P43220). The assay can be described thus: cAMP (HTRF) activity in HEK-293 cells stably overexpressing human GLP-1 receptor. The assay is classed as cell-based. Also noted: expressed in transfected cells; host or cells: HEK-293. Conditions: for Human GLP-1R Rel. A (Relative Activity): EC50 of human GLP-1 (7-37) / EC50 of compound; for EC50: stable transfected cell cAMP activity, at least 3 independent tests. In a few lines: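 Agonism was assessed from intracellular cAMP by HTRF. Cells resuspended in HBSS were treated with compound for 60 minutes at room temperature, then with detection reagent for a further 60 minutes. EC50 (nM) values came from concentration–response curves.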
Human GLP-1R, sequence (P43220 24-463): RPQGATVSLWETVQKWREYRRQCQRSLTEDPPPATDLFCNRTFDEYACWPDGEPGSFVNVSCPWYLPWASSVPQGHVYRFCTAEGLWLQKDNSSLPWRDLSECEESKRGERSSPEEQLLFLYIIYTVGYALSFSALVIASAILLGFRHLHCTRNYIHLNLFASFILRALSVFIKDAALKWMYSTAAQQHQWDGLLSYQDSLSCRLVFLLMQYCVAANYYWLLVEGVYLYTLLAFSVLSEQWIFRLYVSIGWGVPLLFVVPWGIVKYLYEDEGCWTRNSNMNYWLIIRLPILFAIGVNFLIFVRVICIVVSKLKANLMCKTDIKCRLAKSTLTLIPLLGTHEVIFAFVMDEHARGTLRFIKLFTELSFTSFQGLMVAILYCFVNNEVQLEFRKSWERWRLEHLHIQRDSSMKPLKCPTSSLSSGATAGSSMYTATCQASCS

Starred links: 1 amine or outer side, 2 acyl side, 3 side chain; linkers in the order of their positions; H or OH if unused. Non-standard residues stand in square brackets, D forms with d. Residues, ends and D or L forms follow the SMILES beside them. Groups on a side chain read outwards from the residue. *: point of attachment. C20 diacid = O=C(O)CCCCCCCCCCCCCCCCCCC(=O)*; αMePhe(2-F) = C[C@](N)(Cc1ccccc1F)C(=O)O; γGlu = O=C(O)[C@H](CCC(=O)[*:2])N[*:1]; αMeF = C[C@](N)(Cc1ccccc1)C(=O)O; αMeL = CC(C)C[C@](C)(N)C(=O)O; AEEA = NCCOCCOCC(=O)O; Ac3c = NC1(C(=O)O)CC1; Aib = CC(C)(N)C(=O)O

T2 sequence (P47871 26-477): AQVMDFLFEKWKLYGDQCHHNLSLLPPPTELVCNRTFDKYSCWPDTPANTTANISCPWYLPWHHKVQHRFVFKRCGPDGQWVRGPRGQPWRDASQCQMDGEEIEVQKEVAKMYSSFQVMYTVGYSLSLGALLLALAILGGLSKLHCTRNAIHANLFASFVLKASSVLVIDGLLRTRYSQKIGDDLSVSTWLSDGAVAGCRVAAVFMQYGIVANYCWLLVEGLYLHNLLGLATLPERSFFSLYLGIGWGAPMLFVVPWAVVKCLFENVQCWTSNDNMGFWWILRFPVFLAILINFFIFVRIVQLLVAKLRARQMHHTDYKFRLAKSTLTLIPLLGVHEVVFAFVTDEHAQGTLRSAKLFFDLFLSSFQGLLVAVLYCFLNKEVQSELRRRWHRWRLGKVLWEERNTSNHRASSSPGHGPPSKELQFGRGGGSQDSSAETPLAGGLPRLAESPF

Broadly, the EC50 is the concentration giving half of the maximal effect. Lower therefore signals higher potency in that assay. As for `CC[C@H](C)[C@H](NC(=O)[C@H](Cc1ccccc1)NC(=O)[C@H](C)NC(=O)C(C)(C)NC(=O)[C@H](CCC(N)=O)NC(=O)[C@H](C)NC(=O)[C@H](CCCCNC(=O)COCCOCCNC(=O)COCCOCCNC(=O)CC[C@H](NC(=O)CCCCCCCCCCCCCCCCCCC(=O)O)C(=O)O)NC(=O)[C@H](CCCCN)NC(=O)[C@H](CC(=O)O)NC(=O)[C@H](CC(C)C)NC(=O)[C@](C)(CC(C)C)NC(=O)[C@@H](NC(=O)[C@H](CO)NC(=O)[C@H](Cc1ccc(O)cc1)NC(=O)[C@H](CC(=O)O)NC(=O)[C@H](CO)NC(=O)[C@@H](NC(=O)[C@](C)(Cc1ccccc1)NC(=O)[C@@H](NC(=O)CNC(=O)[C@H](CCC(N)=O)NC(=O)C(C)(C)NC(=O)[C@@H](N)Cc1ccc(O)cc1)[C@@H](C)O)[C@@H](C)O)[C@@H](C)CC)C(=O)N[C@@H](CCC(=O)O)C(=O)N[C@@H](Cc1ccccc1)C(=O)N[C@@H](CC(C)C)C(=O)N[C@@H](CC(C)C)C(=O)N[C@@H](CCC(=O)O)C(=O)N[C@@H](CO)C(=O)N[C@@H](Cc1c[nH]cn1)C(=O)N1CCC[C@H]1C(=O)N[C@@H](CO)C(=O)N[C@@H](CO)C(=O)NC(C)(C)C(=O)N[C@@H](Cc1c[nH]cn1)C(=O)N1CCC[C@H]1C(=O)N1CCC[C@H]1C(=O)NC1(C(=O)N[C@@H](CO)C(N)=O)CC1` [Compound 33] (H-Y[Aib]QGT[αMeF]TSDYSI[αMeL]LDKK([AEEA-AEEA-γGlu-C20 diacid])AQ[Aib]AFIEFLLESHPSS[Aib]HPP[Ac3c]S-NH2; N-terminus assumed), at Human GIP R, the “Human GIP R Rel. A (Relative Activity)” value was 2262.50% and the EC50 was determined as 0.008 nM. At Human GCG R, the “Human GCG R Rel. A (Relative Activity)” value was found to be 36.77%. Moreover, in the assay with RIN-m5F cells, the half-maximal effective concentration (EC50) turned out to be 0.717 nM and the “Rel. A (Relative Activity) on RIN-m5F” value is 143.93%. In addition, in the assay on 3T3-L1 adipocytes, the 50% effective concentration (EC50) is 3.3 nM and the “Rel. A (Relative Activity) on 3T3-L1 adipocyte” value is given as 115.21%. For the same compound, in assay [1], the response was half-maximal at 4.19 nM (EC50) and the “Rel. A (Relative Activity) on human primary liver cells” value worked out at 92.93%. The “Human GLP-1R Rel. A (Relative Activity)” value on Human GLP-1R came out at 231.58%.

Consider `CC[C@H](C)[C@H](NC(=O)[C@H](Cc1ccccc1)NC(=O)[C@H](C)NC(=O)C(C)(C)NC(=O)[C@H](CCC(N)=O)NC(=O)[C@H](C)NC(=O)[C@H](CCCCNC(=O)COCCOCCNC(=O)COCCOCCNC(=O)CC[C@H](NC(=O)CCCCCCCCCCCCCCCCCCC(=O)O)C(=O)O)NC(=O)[C@H](CCCCN)NC(=O)[C@H](CC(=O)O)NC(=O)[C@H](CC(C)C)NC(=O)[C@](C)(CC(C)C)NC(=O)[C@@H](NC(=O)[C@H](CO)NC(=O)[C@H](Cc1ccc(O)cc1)NC(=O)[C@H](CC(=O)O)NC(=O)[C@H](CO)NC(=O)[C@@H](NC(=O)[C@](C)(Cc1ccccc1F)NC(=O)[C@@H](NC(=O)CNC(=O)[C@H](CCC(N)=O)NC(=O)C(C)(C)NC(=O)[C@@H](N)Cc1ccc(O)cc1)[C@@H](C)O)[C@@H](C)O)[C@@H](C)CC)C(=O)N[C@@H](CCC(=O)O)C(=O)N[C@@H](Cc1ccc(O)cc1)C(=O)N[C@@H](CC(C)C)C(=O)N[C@@H](CC(C)C)C(=O)N[C@@H](CCC(=O)O)C(=O)N[C@H](C(=O)NCC(=O)N1CCC[C@H]1C(=O)N[C@@H](CO)C(=O)N[C@@H](CO)C(=O)NCC(=O)N[C@@H](CCC(N)=O)C(=O)N1CCC[C@H]1C(=O)N1CCC[C@H]1C(=O)NC1(C(=O)N[C@@H](CO)C(N)=O)CC1)[C@@H](C)O` [Compound 34] (H-Y[Aib]QGT[αMePhe(2-F)]TSDYSI[αMeL]LDKK([AEEA-AEEA-γGlu-C20 diacid])AQ[Aib]AFIEYLLETGPSSGQPP[Ac3c]S-NH2; N-terminus assumed), for which, at Human GIP R, the “Human GIP R Rel. A (Relative Activity)” value was determined as 3620.00% and the concentration for a half-maximal effect (EC50) worked out at 0.005 nM. For the same compound, at Human GCG R, the “Human GCG R Rel. A (Relative Activity)” value is 150.00%. Further, in the assay with RIN-m5F cells, it took 0.879 nM to reach a half-maximal effect (EC50) and the “Rel. A (Relative Activity) on RIN-m5F” value came to 117.41%. For the same compound, in the assay on 3T3-L1 adipocytes, the EC50 was determined as 2.3 nM and the “Rel. A (Relative Activity) on 3T3-L1 adipocyte” value came out at 165.52%. Moreover, in assay [1], the EC50 was 0.537 nM and the “Rel. A (Relative Activity) on human primary liver cells” value is 724.58%. Further, at Human GLP-1R, the “Human GLP-1R Rel. A (Relative Activity)” value was 191.30% and the 50% effective concentration (EC50) stood at 0.023 nM.

For the compound `CC[C@H](C)[C@H](NC(=O)[C@H](Cc1ccccc1)NC(=O)[C@H](C)NC(=O)C(C)(C)NC(=O)[C@H](CCC(N)=O)NC(=O)[C@H](C)NC(=O)[C@H](CCCCNC(=O)COCCOCCNC(=O)COCCOCCNC(=O)CC[C@H](NC(=O)CCCCCCCCCCCCCCCCCCC(=O)O)C(=O)O)NC(=O)[C@H](CCCCN)NC(=O)[C@H](CC(=O)O)NC(=O)[C@H](CC(C)C)NC(=O)[C@](C)(CC(C)C)NC(=O)[C@@H](NC(=O)[C@H](CO)NC(=O)[C@H](Cc1ccc(O)cc1)NC(=O)[C@H](CC(=O)O)NC(=O)[C@H](CO)NC(=O)[C@@H](NC(=O)[C@](C)(Cc1ccccc1)NC(=O)[C@@H](NC(=O)CNC(=O)[C@H](CCC(N)=O)NC(=O)C(C)(C)NC(=O)[C@@H](N)Cc1ccc(O)cc1)[C@@H](C)O)[C@@H](C)O)[C@@H](C)CC)C(=O)N[C@@H](CCC(=O)O)C(=O)N[C@@H](Cc1ccc(O)cc1)C(=O)N[C@@H](CC(C)C)C(=O)N[C@@H](CC(C)C)C(=O)N[C@@H](CCC(=O)O)C(=O)N[C@H](C(=O)NCC(=O)N1CCC[C@H]1C(=O)N[C@@H](CO)C(=O)N[C@@H](CO)C(=O)NCC(=O)N[C@@H](CCC(N)=O)C(=O)N1CCC[C@H]1C(=O)N1CCC[C@H]1C(=O)NC1(C(=O)N[C@@H](CO)C(N)=O)CC1)[C@@H](C)O` [Compound 35] (H-Y[Aib]QGT[αMeF]TSDYSI[αMeL]LDKK([AEEA-AEEA-γGlu-C20 diacid])AQ[Aib]AFIEYLLETGPSSGQPP[Ac3c]S-NH2; N-terminus assumed), at Human GIP R, the “Human GIP R Rel. A (Relative Activity)” value is 2262.50% and the 50% effective concentration (EC50) amounted to 0.008 nM. Also, at Human GCG R, the “Human GCG R Rel. A (Relative Activity)” value is given as 65.52%. In the assay with RIN-m5F cells, the EC50 was 0.346 nM and the “Rel. A (Relative Activity) on RIN-m5F” value is 298.27%. Moreover, in the assay with 3T3-L1 adipocytes, it took 6.01 nM to reach a half-maximal effect (EC50) and the “Rel. A (Relative Activity) on 3T3-L1 adipocyte” value is listed as 63.28%. Moreover, in assay [1], the midpoint of the response, the EC50, lay at 1.96 nM and the “Rel. A (Relative Activity) on human primary liver cells” value was 198.52%. Moreover, on Human GLP-1R, the “Human GLP-1R Rel. A (Relative Activity)” value came to 200.00% and a half-maximal response (EC50) required 0.022 nM.

Source of the values: patent US20250129135A1, “Multi-Agonist and Use Thereof” (priority 2021, published 2025).
